Counter-ions that a name gives are not always drawn.
Molecular target: purified human Factor XIa (Homo sapiens (Human), UniProt P03951)
Assay: Factor XIa chromogenic substrate (S-2366) inhibition assay
Type: biochemical
Settings: substrate S-2366, activity ranges, Table A
How it was run: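 Ki derived from reaction velocities measured in the presence of inhibitor. Purified protease hydrolysed the chromogenic substrate; rate of absorbance change was followed over 20-180 minutes, depending on the protease.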

Chain of purified human Factor XIa (P03951 388-625): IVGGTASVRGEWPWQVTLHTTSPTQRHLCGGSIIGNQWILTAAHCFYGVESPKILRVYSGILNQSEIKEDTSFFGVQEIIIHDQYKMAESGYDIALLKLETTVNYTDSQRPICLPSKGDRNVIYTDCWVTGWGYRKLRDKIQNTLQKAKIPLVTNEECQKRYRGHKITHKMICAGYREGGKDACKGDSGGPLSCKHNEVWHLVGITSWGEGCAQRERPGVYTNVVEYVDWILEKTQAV
Chain of purified human Factor XIa (P03951 19-387 partner): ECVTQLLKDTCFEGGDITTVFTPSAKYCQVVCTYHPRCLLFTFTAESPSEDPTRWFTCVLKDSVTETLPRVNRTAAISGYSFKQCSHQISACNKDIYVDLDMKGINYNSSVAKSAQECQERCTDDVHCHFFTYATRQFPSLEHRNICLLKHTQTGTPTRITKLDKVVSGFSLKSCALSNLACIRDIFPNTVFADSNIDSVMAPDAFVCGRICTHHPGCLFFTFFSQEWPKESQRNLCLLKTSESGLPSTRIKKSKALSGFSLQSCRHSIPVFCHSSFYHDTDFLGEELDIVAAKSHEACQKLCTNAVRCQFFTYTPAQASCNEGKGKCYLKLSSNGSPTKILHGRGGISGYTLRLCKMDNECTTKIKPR

Structure (SMILES) | Ki [nM]
O=C(O)c1ccc(NC(=O)C2c3cccc(N4CCC(N5CCCC5=O)CC4)c3CCN2C(=O)/C=C/c2c(-n3cnnn3)ccc(Cl)c2F)cc1 (racemic) [Example 96] | < 5
CNC(=O)c1ccc(NC(=O)C2c3cccc(N4CCNCC4)c3CCN2C(=O)/C=C/c2cc(Cl)c(F)cc2-n2cnnn2)cc1 (racemic) [Example 77] | 100 to 500
O=C(O)c1ccc(NC(=O)C2c3cccc(N4CCC(c5ccccc5)CC4)c3CCN2C(=O)/C=C/c2c(-n3cnnn3)ccc(Cl)c2F)cc1 (racemic) [Example 95] | < 5
CCOC(=O)CCNC(=O)N1CCN(c2cccc3c2CCN(C(=O)/C=C/c2cc(Cl)ccc2-n2cnnn2)C3C(=O)Nc2ccc(C(=O)O)cc2)CC1 (stereo not shown) [Example 21] | < 5
O=C(O)c1ccc(NC(=O)C2c3cccc(N4CCC5(CCN(Cc6ccccc6)C5=O)CC4)c3CCN2C(=O)/C=C/c2c(-n3cnnn3)ccc(Cl)c2F)cc1 (racemic) [Example 121] | < 5

Further lines, results first:

Ki [nM] | Structure (SMILES)
5 to 10 | COC(=O)[C@H]1CC[C@H](NC(=O)C2c3cccc(N4CCC(N5CCCC5)CC4)c3CCN2C(=O)/C=C/c2c(-n3cnnn3)ccc(Cl)c2F)CC1 (mixture of isomers) [Example 232]
< 5 | O=C(O)c1ccc(NC(=O)C2c3cccc(N4CCC(N5CCCC5)CC4)c3CCN2C(=O)/C=C/c2cc(Cl)ccc2OC(F)F)cc1 (racemic) [Example 159]
< 5 | O=C(O)c1ccc(NC(=O)C2c3cccc(N4CCCCCC4)c3CCN2C(=O)/C=C/c2c(-n3cnnn3)ccc(Cl)c2F)cc1 (racemic) [Example 258]
100 to 500 | CCOC(=O)c1cc(C)n(-c2cccc3c2CCN(C(=O)/C=C/c2c(-n4cnnn4)ccc(Cl)c2F)C3C(=O)Nc2ccc(F)cc2)n1 (stereo not shown) [Example 242, (E)-Ethyl 1-(2-(3-(3-chloro-2-fluoro-6-(1H-tetrazol-1-yl)phenyl)acryloyl)-1-(4-fluorophenylcarbamoyl)-1,2,3,4-tetrahydroisoquinolin-5-yl)-5-methyl-1H-pyrazole-3-carboxylate]
< 5 | CC1(C)Cc2c(cccc2N2CCNCC2)[C@@H](C(=O)Nc2ccc(C(=O)O)cc2)N1C(=O)/C=C/c1c(-n2cnnn2)ccc(Cl)c1F [Example 194, (S,E)-4-(2-(3-(3-Chloro-2-fluoro-6-(1H-tetrazol-1-yl)phenyl)acryloyl)-3,3-dimethyl-5-(piperazin-1-yl)-1,2,3,4-tetrahydroisoquinoline-1-carboxamido) benzoic acid, bis-TFA salt]
